In test [1] the target is T1, N-terminally FLAG-tagged PARP2 (amino acids 1-583) (Homo sapiens, UniProt Q9UGN5).
T1 construct: N-terminally FLAG-tagged PARP2 (amino acids 1-583)
The experiment in a line: PARP2 probe displacement HTRF assay. The class given is binding. The following applies: binned Kd. The method, then:
Data analysis was performed identical as for PARP1.
For orientation: TR-FRET usually uses a lanthanide donor and a delayed reading to cut background.

Test [2] addresses T2, full length N-terminally FLAG-tagged PARP1 (Homo sapiens, UniProt P09874). As to the kind of experiment: PARP1 probe displacement HTRF assay. As to conditions: for Selectivity: PARP1 over PARP2, ratio Kd (PARP2)/Kd (PARP1); for Kd: binned Kd.
Test [3] has as its target T2, full length N-terminally FLAG-tagged PARP1. The experiment in a line: PARP1 biochemical DELFIA assay (auto-PARylation). Also noted: recombinant full length human N-terminally FLAG-tagged PARP1.
The mark [4] stands for this setting: read-out: PARP1 HTRF, probe displacement HTRF.
The mark [5] stands for this setting: binned IC50, biochemical auto-PARylation assay.
Where [6] appears, read: read-out: PARP1 HTRF, PARP1 probe displacement HTRF.
The mark [7] stands for this setting: binned IC50, PARP1 biochemical DELFIA assay.
Where [8] appears, read: PARP1 HTRF, PARP1 probe displacement HTRF.

Read-outs that look alike come from different tables or passages of the source.

T1 sequence (Q9UGN5 whole entry, the tested form may be a part): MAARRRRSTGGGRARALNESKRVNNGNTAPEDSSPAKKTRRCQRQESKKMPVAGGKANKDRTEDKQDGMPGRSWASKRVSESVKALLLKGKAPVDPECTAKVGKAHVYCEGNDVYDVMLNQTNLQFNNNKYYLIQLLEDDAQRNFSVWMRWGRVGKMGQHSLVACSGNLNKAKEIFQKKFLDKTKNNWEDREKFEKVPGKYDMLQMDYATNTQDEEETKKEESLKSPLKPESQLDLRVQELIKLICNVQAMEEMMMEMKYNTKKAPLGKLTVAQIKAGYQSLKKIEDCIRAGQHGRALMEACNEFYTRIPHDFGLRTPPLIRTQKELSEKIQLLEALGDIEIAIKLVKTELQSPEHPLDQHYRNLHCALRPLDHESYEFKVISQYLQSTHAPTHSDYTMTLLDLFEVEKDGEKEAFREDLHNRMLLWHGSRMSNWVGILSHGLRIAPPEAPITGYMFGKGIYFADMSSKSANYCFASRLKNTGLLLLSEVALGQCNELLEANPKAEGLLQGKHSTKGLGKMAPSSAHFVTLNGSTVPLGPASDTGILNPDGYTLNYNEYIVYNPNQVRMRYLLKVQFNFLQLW
T2 sequence (P09874 whole entry): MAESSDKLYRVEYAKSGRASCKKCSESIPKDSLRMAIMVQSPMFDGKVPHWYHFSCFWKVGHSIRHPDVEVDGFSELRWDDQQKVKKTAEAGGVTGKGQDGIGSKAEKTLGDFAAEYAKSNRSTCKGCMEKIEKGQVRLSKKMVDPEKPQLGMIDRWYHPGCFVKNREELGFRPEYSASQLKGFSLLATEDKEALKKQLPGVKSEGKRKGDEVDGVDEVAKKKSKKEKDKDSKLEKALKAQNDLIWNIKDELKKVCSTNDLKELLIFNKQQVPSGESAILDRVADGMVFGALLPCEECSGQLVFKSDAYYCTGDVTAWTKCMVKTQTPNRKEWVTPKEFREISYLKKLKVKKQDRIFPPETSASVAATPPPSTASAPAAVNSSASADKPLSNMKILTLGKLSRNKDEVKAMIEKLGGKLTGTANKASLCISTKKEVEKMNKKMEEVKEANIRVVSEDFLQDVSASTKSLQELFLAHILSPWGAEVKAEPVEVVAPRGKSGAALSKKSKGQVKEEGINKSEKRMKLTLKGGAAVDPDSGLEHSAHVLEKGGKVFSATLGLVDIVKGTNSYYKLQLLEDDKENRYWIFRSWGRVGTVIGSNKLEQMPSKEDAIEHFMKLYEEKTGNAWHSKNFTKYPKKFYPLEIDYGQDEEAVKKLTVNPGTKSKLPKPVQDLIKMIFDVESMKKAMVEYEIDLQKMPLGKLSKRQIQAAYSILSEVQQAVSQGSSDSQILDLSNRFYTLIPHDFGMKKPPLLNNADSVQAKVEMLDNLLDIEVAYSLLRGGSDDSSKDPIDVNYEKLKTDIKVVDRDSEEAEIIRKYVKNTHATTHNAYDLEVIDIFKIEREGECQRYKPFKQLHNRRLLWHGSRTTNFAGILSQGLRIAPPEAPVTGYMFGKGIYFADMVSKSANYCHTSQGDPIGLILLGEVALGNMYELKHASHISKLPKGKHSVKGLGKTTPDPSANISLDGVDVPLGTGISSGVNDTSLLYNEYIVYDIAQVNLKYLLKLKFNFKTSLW

In the case of `O=c1[nH]c(C2CCN(C3CCN(c4ccc(-c5nnn[nH]5)nc4)CC3)C2)nc2ccccc12` (racemic) [Compound 263rac], the Kd in test [1] (probe displacement HTRF) and in test [2] (setting [4]) was 100 to 1000 nM in each case. Besides, in test [2] (probe displacement HTRF), the Selectivity result is reported as “− (− indicates a value of less than 10)”. Further, the half-maximal inhibitory concentration (IC50) in test [3] (setting [5]) fell in the range of 10 to 100 nM.

For `CNC(=O)c1ccc(N2CCC(N3CCC(c4cc5ccc(F)cc5c(=O)[nH]4)C3)CC2)c(C)n1` (single isomer, unassigned) [Compound 196b], the figures for the Kd in test [1] (PARP2 probe displacement HTRF) and in test [2] (setting [6]) were 1000 to 10000 nM and below 10 nM, respectively. In test [2] (probe displacement HTRF), the Selectivity entry is listed as “+++ (+++ indicate a value of at least 100)”. Further, the half-maximal inhibitory concentration (IC50) in test [3] (setting [7]) was below 10 nM.

For `CNC(=O)c1ccc(N2CCC(N3CCCC(c4cc5ccccc5c(=O)[nH]4)C3)CC2)cn1` (single isomer, unassigned) [Compound 100b], the Kd in test [1] (PARP2 probe displacement HTRF) lay within 1000 to 10000 nM; in test [2] (setting [6]), 10 to 100 nM. Also, the Selectivity result in test [2] (probe displacement HTRF) was “+++ (+++ indicate a value of at least 100)”. In addition, the half-inhibitory concentration (IC50) in test [3] (setting [7]) was in the range of 10 to 100 nM.

As for `CNC(=O)c1ccc(N2CCC(N3CCC(c4nc5c(c(=O)[nH]4)CCCN5C)C3)CC2)cn1` (single isomer, unassigned) [Compound 208b, N-methyl-5-(4-(3-(8-methyl-4-oxo-3,4,5,6,7,8-hexahydropyrido[2,3-d]pyrimidin-2-yl)pyrrolidin-1-yl)piperidin-1-yl)picolinamide], the Kd in test [1] (PARP2 probe displacement HTRF) is 10 to 100 nM; in test [2] (setting [8]), below 10 nM. Besides, the Selectivity entry in test [2] (probe displacement HTRF) is reported as “++ (++ indicates a value of 50 to less than 100)”. In addition, the concentration for half-maximal inhibition (IC50) in test [3] (setting [7]) is below 10 nM.

On to `CNC(=O)c1ccc(N2CCC(N3CCC(c4nc5sc(C)c(C)c5c(=O)[nH]4)C3)CC2)cn1` (single isomer, unassigned) [Compound 221b], for which the Kd is 10 to 100 nM in test [1] (probe displacement HTRF) and below 10 nM in test [2] (setting [4]). For the same compound, the Selectivity result in test [2] (probe displacement HTRF) is recorded as “++ (++ indicates a value of 50 to less than 100)”. Further, the concentration for half-maximal inhibition (IC50) in test [3] (setting [5]) was below 10 nM.

Consider `CNC(=O)c1cc(C)c(N2CCC(N3CCC(c4nc5ccccc5c(=O)[nH]4)C3)CC2)c(C)n1` (single isomer, unassigned) [Compound 224b], for which the Kd lay within 1000 to 10000 nM in test [1] (probe displacement HTRF) and 100 to 1000 nM in test [2] (setting [4]). The Selectivity entry in test [2] (probe displacement HTRF) was “− (− indicates a value of less than 10)”. Moreover, the IC50 in test [3] (setting [5]) lay in the range of 100 to 1000 nM.

Regarding `CNC(=O)c1ccc(N2CCC(N3CCC(c4cc5cccc(F)c5c(=O)[nH]4)C3)CC2)nn1` (single isomer, unassigned) [Compound 209a], the Kd in test [1] (PARP2 probe displacement HTRF) was 100 to 1000 nM; in test [2] (setting [6]), below 10 nM. In test [2] (probe displacement HTRF), the Selectivity entry was “+++ (+++ indicate a value of at least 100)”. The concentration for half-maximal inhibition (IC50) in test [3] (setting [7]) is below 10 nM.

In the case of `CNC(=O)c1ccc(N2CCC(N3CCCC(c4nc5ncccc5c(=O)[nH]4)C3)CC2)cn1` (single isomer, unassigned) [Compound 98a], the Kd in test [1] (PARP2 probe displacement HTRF) was above 10000 nM; in test [2] (setting [6]), 10 to 100 nM. For the same compound, in test [2] (probe displacement HTRF), the Selectivity result was “+++ (+++ indicate a value of at least 100)”. Further, the IC50 in test [3] (setting [7]) lay in the range of 10 to 100 nM.

For `CNC(=O)c1ccc(N2CCC(N3CCC(c4cc5cccc(F)c5c(=O)[nH]4)C3)CC2)c(C)n1` (single isomer, unassigned) [Compound 206a], the Kd in test [1] (PARP2 probe displacement HTRF) is 100 to 1000 nM; in test [2] (setting [6]), below 10 nM. Also, the Selectivity entry in test [2] (probe displacement HTRF) is “+++ (+++ indicate a value of at least 100)”. In addition, in test [3] (setting [7]), the IC50 was below 10 nM.

As to `CCc1ccc(C2CCN(C3CCN(c4ccc(C(=O)NCCF)nc4)CC3)C2)[nH]c1=O` (single isomer, unassigned) [Compound 165a], the Kd in test [1] (PARP2 probe displacement HTRF) is 100 to 1000 nM; in test [2] (setting [6]), below 10 nM. For the same compound, the Selectivity result in test [2] (probe displacement HTRF) was “+++ (+++ indicate a value of at least 100)”. Further, the half-inhibitory concentration (IC50) in test [3] (setting [7]) was below 10 nM.

In the case of `CNC(=O)c1ccc(N2CCC(N3CCC(c4cc5c(F)cncc5c(=O)[nH]4)C3)CC2)cn1` (single isomer, unassigned) [Compound 331b], the Kd fell in the range of 1000 to 10000 nM in test [1] (probe displacement HTRF) and 10 to 100 nM in test [2] (setting [4]). Further, the Selectivity result in test [2] (probe displacement HTRF) is reported as “+++ (+++ indicate a value of at least 100)”. Besides, the IC50 in test [3] (setting [5]) lay within 10 to 100 nM.

Consider `CNC(=O)c1ccc(N2CCC(N3CCCC(c4ccc(OC)c(=O)[nH]4)C3)CC2)cn1` (single isomer, unassigned) [Compound 147a], for which the Kd was above 10000 nM in test [1] (PARP2 probe displacement HTRF) and 1000 to 10000 nM in test [2] (setting [6]). In addition, the Selectivity entry in test [2] (probe displacement HTRF) is “− (− indicates a value of less than 10)”. The 50% inhibitory concentration (IC50) in test [3] (setting [7]) was in the range of 1000 to 10000 nM.

Consider `CNC(=O)c1ncc(N2CCC(N3CCC(c4cc5cccc(F)c5c(=O)[nH]4)C3)CC2)c(C(F)(F)F)n1` (single isomer, unassigned) [Compound 277a], for which the results for the Kd in test [1] (probe displacement HTRF) and in test [2] (setting [4]) were 1000 to 10000 nM and below 10 nM, respectively. Also, in test [2] (probe displacement HTRF), the Selectivity entry is “+++ (+++ indicate a value of at least 100)”. Moreover, the IC50 in test [3] (setting [5]) is below 10 nM.

Take `CNC(=O)c1ccc(N2CCC(N3CCCC(c4ccc(C5CC5)c(=O)[nH]4)C3)CC2)cn1` (single isomer, unassigned) [Compound 126a]: the Kd was 1000 to 10000 nM in test [1] (PARP2 probe displacement HTRF) and below 10 nM in test [2] (setting [6]). Moreover, the Selectivity entry in test [2] (probe displacement HTRF) is reported as “+++ (+++ indicate a value of at least 100)”. Moreover, the concentration for half-maximal inhibition (IC50) in test [3] (setting [7]) was below 10 nM.

In the case of `CCc1ccc(C2CCN(C3CCN(c4ccc(C(=O)NC)nc4C)CC3)C2)[nH]c1=O` (single isomer, unassigned) [Compound 133a], the Kd in test [1] (PARP2 probe displacement HTRF) is 1000 to 10000 nM; in test [2] (setting [6]), below 10 nM. Also, the Selectivity entry in test [2] (probe displacement HTRF) is given as “+++ (+++ indicate a value of at least 100)”. The concentration for half-maximal inhibition (IC50) in test [3] (setting [7]) is below 10 nM.

In the case of `CNC(=O)c1ccc(N2CCC(N3CCC(c4cc5ncccc5c(=O)[nH]4)C3)CC2)cn1` (single isomer, unassigned) [Compound 218a], the figures for the Kd in test [1] (PARP2 probe displacement HTRF) and in test [2] (setting [6]) were above 10000 nM and 10 to 100 nM, respectively. The Selectivity result in test [2] (probe displacement HTRF) was “+++ (+++ indicate a value of at least 100)”. In test [3] (setting [7]), the IC50 was 10 to 100 nM.

For the compound `CNC(=O)c1ccc(N2CCC(N3CCC(c4cnc(C)c(=O)[nH]4)C3)CC2)cn1` (racemic) [Compound 127rac], the Kd in test [1] (PARP2 probe displacement HTRF) is above 10000 nM; in test [2] (setting [6]), 10 to 100 nM. Moreover, the Selectivity result in test [2] (probe displacement HTRF) is “+++ (+++ indicate a value of at least 100)”. The IC50 in test [3] (setting [7]) lay in the range of 10 to 100 nM.

Turning to `CNC(=O)c1ccc(OCCN2CCCC(Cc3nc4ccccc4c(=O)[nH]3)C2)cn1` (single isomer, unassigned) [Compound 14b, N-methyl-5-(2-(3-((4-oxo-3,4-dihydroquinazolin-2-yl)methyl)piperidin-1-yl)ethoxy)picolinamide], the Kd in test [1] (PARP2 probe displacement HTRF) is above 10000 nM; in test [2] (setting [8]), 10 to 100 nM. Moreover, in test [2] (probe displacement HTRF), the Selectivity entry is given as “+++ (+++ indicate a value of at least 100)”. In test [3] (setting [7]), the half-inhibitory concentration (IC50) fell in the range of 10 to 100 nM.

Consider `CNC(=O)c1ccc(N2CCC(N3CCC(c4cc5c(c(=O)[nH]4)CCCN5)C3)CC2)cn1` (racemic) [Compound 233rac], for which the Kd in test [1] (probe displacement HTRF) was 100 to 1000 nM; in test [2] (setting [4]), below 10 nM. Moreover, in test [2] (probe displacement HTRF), the Selectivity entry is given as “+++ (+++ indicate a value of at least 100)”. In test [3] (setting [5]), the IC50 is below 10 nM.

In the case of `CNC(=O)c1ccc(N2CCC(N3CCCC(c4ncc(C)c(=O)[nH]4)C3)CC2)cn1` (single isomer, unassigned) [Compound 33b], the Kd in test [1] (PARP2 probe displacement HTRF) is above 10000 nM; in test [2] (setting [6]) it was 10 to 100 nM. For the same compound, the Selectivity entry in test [2] (probe displacement HTRF) is reported as “++ (++ indicates a value of 50 to less than 100)”. Moreover, the IC50 in test [3] (setting [7]) was 10 to 100 nM.

One may read the IC50 as the point on the concentration scale where inhibition reaches its midpoint.
